Reference: patent US20060205755A1, “Novel farnesyl protein transferase inhibitors as antitumor agents” (Schering Corporation, priority 2004, published 2006)

Experiments:
Human tumor cells = test: Soft Agar Assay (anchorage-independent growth, colony count); type: cell-based; settings: colony outgrowth 10-16 days at 37° C.
Description: Anchorage-independent growth is a characteristic of tumorigenic cell lines. Human tumor cells can be suspended in growth medium containing 0.3% agarose and an indicated concentration of a farnesyl transferase inhibitor. The solution can be overlayed onto growth medium solidified with 0.6% agarose containing the same concentration of farnesyl transferase inhibitor as the top layer. After the top layer is solidified, plates can be incubated for 10-16 days at 37° C. under 5% CO2 to allow colony outgrowth. After incubation, the colonies can be stained by overlaying the agar with a solution of MTT (3-[4,5-dimethyl-thiazol-2-yl]-2,5-diphenyltetrazolium bromide, Thiazolyl blue) (1 mg/mL in PBS). Colonies can be counted and the IC50's can be determined.

[1] = molecular target: purified human farnesyl protein transferase (Homo sapiens, UniProt P49354+P49356); test: FPT activity: transfer of [3H] farnesyl from [3H] farnesyl pyrophosphate to biotinylated H-ras peptide (SPA); type: biochemical; settings: 0.03 nM enzyme, 37° C., 60 minutes
Description: FPT activity was determined by measuring the transfer of [^3H] farnesyl from [^3H] farnesyl pyrophosphate to a biotinylated peptide derived from the C-terminus of H-ras (biotin-CVLS). The reaction mixture contains: 50 mM Tris pH7.7, 5 mM MgCl2, 5 μM Zn^++, 5 mM DTT, 0.1% Triton-X, 0.05 μM peptide, 0.03 nM purified human farnesyl protein transferase, 0.180 μM [^3H] farnesyl pyrophosphate, plus the indicated concentration of tricyclic compound or vehicle control in a total volume of 100 μl. The reaction was incubated in a Vortemp shaking incubator at 37° C., 45 RPM for 60 minutes and stopped with 150 μl of 0.25 M EDTA containing 0.5% BSA and 1.3 mg/ml Streptavidin SPA beads. Radioactivity was measured in a Wallach 1450 Microbeta liquid scintillation counter. Percent inhibition was calculated relative to the vehicle control.

| SMILES | IC50 (Human tumor cells) [nM] | IC50 [1] [nM] |
| --- | --- | --- |
| Cn1cncc1C(NC(=O)OC1(C)CC1)C1=Cc2cccnc2C(=C2CCN(C(=O)OC3(C)CC3)CC2)c2ccc(Cl)cc21 (centres unmarked) [Example 2] | – | 0.9 |
| Cn1cncc1C(NC(=O)OC1(C)CC1)C1=Cc2cccnc2C(O)(C2CCN(C(=O)OC(C)(C)C)CC2)c2ccc(Cl)cc21 (centres unmarked) [Example 5] | ≥ 9 | – |

Continued, values first:

| IC50 (Human tumor cells) [nM] | IC50 [1] [nM] | SMILES |
| --- | --- | --- |
| ≥ 9 | – | Cn1cncc1C(NC(=O)OC1(C)CC1)C1=Cc2cccnc2C(C2CCN(C(=O)OC3(C)CC3)CC2)c2ccc(Cl)cc21 (single isomer, unassigned) [Example 4] |
| ≥ 9 | – | Cn1cncc1C(NC(=O)OC1(C)CC1)C1=Cc2cccnc2C(=C2CCN(C(=O)OC(C)(C)C)CC2)c2ccc(Cl)cc21 (centres unmarked) [Example 1] |
| ≥ 9 | – | Cn1cncc1C(NC(=O)OC1(C)CC1)C1=Cc2cccnc2C(O)(C2CCN(C(=O)OC3(C)CC3)CC2)c2ccc(Cl)cc21 (centres unmarked) [Example 6] |
